# Experimental data reported in BindingDB's records for doi:10.1021/acs.jmedchem.6b00709 (University of Berne, 2016).
# Assay: Inhibition of Aurora A kinase in human HeLa Kyoto cells assessed as induction of defective chromosome alignment during metaphase incubated for 20 hrs
structure (smiles),measurement,value
CCc1ccc(/N=C2\S/C(=C\c3ccnc(Nc4ccc(C(=O)O)cn4)c3)C(=O)N2C)cc1,EC50,6 µM
